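In this assay, cells in 96-well plates receive the compound at five concentrations for 48 hours. Endpoints are linearly interpolated between the surrounding concentrations. GI50 is the concentration that inhibits growth by half.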 Active and inactive are the calls of the source. No stated cut-off is given here; in the data, active = GI50 up to about 1.1 µM and inactive = higher.
Tests used:
Test in all cases: NCI tumour cell line growth inhibition, 48 h
[1] = tested on: A549
[2] = tested on: ACHN
[3] = tested on: DU-145
[4] = tested on: HCC 2998
[5] = tested on: HT-29
[6] = tested on: IGROV-1
[7] = tested on: KM12
[8] = tested on: MDA-MB-231
[9] = tested on: MDA-MB-435
[10] = tested on: MOLT-4
[11] = tested on: NCI-H23
[12] = tested on: OVCAR-4
[13] = tested on: OVCAR-8
[14] = tested on: SF-268
[15] = tested on: SF-539
[16] = tested on: SN12C
[17] = tested on: SNB-19
[18] = tested on: U-251
[19] = tested on: UACC-257
[20] = tested on: UO-31

Measured: GI50

O=C(/C=C/c1ccsc1)c1ccc(Cl)s1
inactive: [1] > 100 µM | [2] > 100 µM | [3] > 100 µM | [4] 31.7 µM | [5] 34 µM | [6] > 100 µM | [7] 19.5 µM | [8] > 100 µM | [9] 30.6 µM | [10] 20.6 µM | [11] 82.8 µM | [12] > 100 µM | [13] > 100 µM | [14] 67.5 µM | [15] > 100 µM | [16] 75.3 µM | [17] > 100 µM | [18] > 100 µM | [19] > 100 µM | [20] 78.9 µM

C[C@]12CC[C@H](O)C[C@@H]1CC[C@@H]1[C@@H]2CC[C@]2(C)[C@@H](c3cc(C(F)(F)F)[nH]n3)CC[C@@H]12
inactive: [1] 4.8 µM | [2] 7.21 µM | [3] 10.9 µM | [4] 15 µM | [5] 4.27 µM | [6] 6.32 µM | [7] 10.1 µM | [8] 6.67 µM | [9] 10.1 µM | [10] 3.95 µM | [11] 7.11 µM | [12] 6.64 µM | [13] 5.35 µM | [14] > 33 µM | [15] 7.36 µM | [16] 7.59 µM | [17] 9.68 µM | [18] 7.01 µM | [19] 5.69 µM | [20] 1.51 µM

C=CCSC1=N/C(=C\c2ccc(OC)cc2)C(=O)N1CC=C
inactive: [1] 30.9 µM | [2] 33.3 µM | [3] 42.2 µM | [4] 23.9 µM | [5] 20.2 µM | [6] > 100 µM | [7] 21.9 µM | [8] 37.2 µM | [9] 26.4 µM | [10] 13.7 µM | [11] 28.4 µM | [12] 28.2 µM | [13] 36.2 µM | [14] 60.4 µM | [15] 36.6 µM | [16] 24.1 µM | [17] 84.3 µM | [18] 24.3 µM | [19] 23.2 µM | [20] 34.3 µM

CC(C)(Br)C(=O)C(Br)Br
inactive: [1] 16.6 µM | [2] 10.5 µM | [3] 33.7 µM | [4] 17.1 µM | [5] 8.17 µM | [6] 8.22 µM | [7] 16.8 µM | [8] 5.56 µM | [9] 5.58 µM | [10] 1.67 µM | [11] 4.61 µM | [12] 5.09 µM | [13] 5.27 µM | [14] 14 µM | [15] > 33.2 µM | [16] > 24.4 µM | [17] 19.7 µM | [18] > 28 µM | [19] 9.84 µM | [20] 17.5 µM
